Experimental findings from patent US7820623B2 (priority 2006, dated 2010) are described below.

Series [1] deals with T1, human Kv1.3 (Homo sapiens, UniProt P22001). Nature of the series: cell-based.
For the next series, the target named is T2, human Kv1.3 (CHO) (Homo sapiens, UniProt P22001).
T2 construct: expressed in transfected cells
Nature of the series: cell-based. The format is cell-based.

In series [2] the test system is thapsigargin-induced IFN-g production in human whole blood. The format is cell-based. Particulars: for IC50: read-out: Analogue Activity (IC50) WB/IFNg.
The test system of series [3] is thapsigargin-induced IL-2 production in human whole blood. The note with it: for IC50: read-out: Analogue Activity (IC50) WB/IL-2.
Series [4] has as its target T1, human Kv1.3. The class given is cell-based. The arrangement: expressed in transfected cells. Particulars: read-out: IC50 on CHO/Kv1.3.
In the next series the target is T3, human Kv1.1 (HEK293) (Homo sapiens, UniProt Q09470).
T3 construct: expressed in transfected cells; host or cells: HEK293
T3 sequence (Q09470 whole entry): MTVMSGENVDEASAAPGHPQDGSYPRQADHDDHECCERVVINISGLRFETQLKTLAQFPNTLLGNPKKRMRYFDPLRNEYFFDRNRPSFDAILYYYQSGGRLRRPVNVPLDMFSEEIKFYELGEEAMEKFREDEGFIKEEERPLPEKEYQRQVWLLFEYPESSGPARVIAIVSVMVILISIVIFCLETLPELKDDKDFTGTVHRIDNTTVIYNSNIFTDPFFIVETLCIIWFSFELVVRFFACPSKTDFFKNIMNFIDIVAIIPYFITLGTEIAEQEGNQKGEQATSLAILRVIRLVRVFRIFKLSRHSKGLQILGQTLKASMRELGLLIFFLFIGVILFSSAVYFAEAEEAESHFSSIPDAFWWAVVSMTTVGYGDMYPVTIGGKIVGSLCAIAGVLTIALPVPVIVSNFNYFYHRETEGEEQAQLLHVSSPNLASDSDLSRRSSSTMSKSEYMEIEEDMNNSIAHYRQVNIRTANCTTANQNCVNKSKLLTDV
Briefly: cell-based.

Setting [5] is: read-out: IC50 for block of the outward potassium current.

Read-outs that look alike come from different tables or passages of the source. Bridge positions count the residues as written; N and C are the ends. Square brackets hold non-standard residues; d marks the D form. Peptide text beside a SMILES is read from it. 1Nal = N[C@@H](Cc1cccc2ccccc12)C(=O)O

T2 sequence (P22001 whole entry): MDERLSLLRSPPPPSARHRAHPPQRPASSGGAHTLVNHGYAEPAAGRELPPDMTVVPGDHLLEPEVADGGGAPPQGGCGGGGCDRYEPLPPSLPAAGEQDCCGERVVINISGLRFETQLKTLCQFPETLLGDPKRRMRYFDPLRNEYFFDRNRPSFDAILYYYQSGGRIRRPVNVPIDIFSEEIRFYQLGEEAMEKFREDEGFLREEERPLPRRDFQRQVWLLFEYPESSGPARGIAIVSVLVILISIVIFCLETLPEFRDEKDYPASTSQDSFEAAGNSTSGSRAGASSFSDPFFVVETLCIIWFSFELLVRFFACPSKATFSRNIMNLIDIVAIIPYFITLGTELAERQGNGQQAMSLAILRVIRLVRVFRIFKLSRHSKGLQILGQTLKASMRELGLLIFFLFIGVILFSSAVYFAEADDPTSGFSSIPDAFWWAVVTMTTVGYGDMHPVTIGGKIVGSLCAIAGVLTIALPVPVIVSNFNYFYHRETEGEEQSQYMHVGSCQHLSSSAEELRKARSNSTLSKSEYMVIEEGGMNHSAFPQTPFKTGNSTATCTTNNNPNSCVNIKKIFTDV
T1 sequence (P22001 whole entry): as above

Turning to E. coli-derived Fc-L-ShK[1-35], the IC50 with human Kv1.3 [1] (read-out: Kv1.3 IC50 by WCVC) was 1.4 nM.

Regarding “Fc-L5-ShK[2-35]: human IgG1 Fc fused via 5 amino acid linker to ShK[2-35]”, in the series with human Kv1.3 [1] (setting [5]), the IC50 was 0.1 nM.

Regarding E. coli-derived Fc-L-ShK[2-35], the IC50 in the series with human Kv1.3 [1] (read-out: Kv1.3 IC50 by WCVC) was 1.3 nM; with human Kv1.3 (CHO) (read-out: Kv1.3 IC50 by IWQ), 2.8 nM.

Regarding “Fc-L10-ShK[2-35]: human IgG1 Fc fused via 10 amino acid linker to ShK[2-35]”, in the series with human Kv1.3 [1] (setting [5]), the IC50 is 0.115 ± 0.018 nM. Further, in series [2], the “thapsigargin-induced IFN-g production in human whole blood” value is “suppressed”. Moreover, in series [3], the “stability in whole blood” value was “stable in whole blood”, the “thapsigargin-induced IL-2 production in human whole blood” value is reported as “suppressed” and the “times more potent than cyclosporine A in blocking IL-2 production (IC50)” value was “more than 200 times”.

Take `CC[C@H](C)[C@@H]1NC(=O)[C@H](CCCCN)NC(=O)[C@@H](NC(=O)[C@H](CCCCN)NC(=O)[C@@H](NC(=O)[C@H](CC(N)=O)NC(=O)[C@@H](NC(=O)[C@@H](NC(=O)[C@@H](NC(=O)CN)C(C)C)[C@@H](C)CC)[C@@H](C)CC)C(C)C)CSSC[C@@H]2NC(=O)[C@H](CCCCN)NC(=O)CNC(=O)[C@H](Cc3ccccc3)NC(=O)[C@H](CCCNC(=N)N)NC(=O)[C@H](CCSC)NC(=O)CNC(=O)[C@H](C)NC(=O)[C@H](CCCCN)NC(=O)[C@H](CCCCN)NC(=O)[C@@H]3CSSC[C@@H](C(=O)N[C@H](C(=O)N4CCC[C@H]4C(=O)N[C@@H](CCCCN)C(=O)O)[C@@H](C)O)NC(=O)[C@H](Cc4c[nH]cn4)NC(=O)[C@H](CSSC[C@H](NC(=O)[C@H](CCC(N)=O)NC(=O)[C@H](CCCNC(=N)N)NC(=O)[C@H](CO)NC1=O)C(=O)N[C@@H](CC(C)C)C(=O)N[C@@H](CCC(=O)O)C(=O)N1CCC[C@H]1C(=O)N3)NC(=O)[C@H](CCCCN)NC(=O)CNC(=O)[C@H](CC(N)=O)NC(=O)[C@H](C)NC2=O` [OSK1[Ala-29]] (H-GVIINVKCKISRQCLEPCKKAGMRFGKCANGKCHCTPK-OH; disulfide 8-28, 14-33, 18-35): the “inhibition of Kv1.3 current and selectivity over Kv1.1 by IonWorks” value at human Kv1.3 (CHO) was “potent inhibition of the Kv1.3 current and improved selectivity over Kv1.1”. The “potency relative to cyclosporin A in blocking the cytokine response” value in series [3] is “several orders of magnitude more potent”. Also, at human Kv1.3 [4], the IC50 is 0.033 nM.

The compound `CC[C@H](C)[C@@H]1NC(=O)[C@@H](NC(=O)[C@@H](N)CO)CSSC[C@@H](C(=O)O)NC(=O)[C@H]([C@@H](C)O)NC(=O)CNC(=O)[C@@H]2CSSC[C@@H]3NC(=O)[C@H](CCC(N)=O)NC(=O)[C@H](Cc4ccccc4)NC(=O)[C@H](C)NC(=O)[C@H]([C@@H](C)O)NC(=O)[C@H](CSSC[C@H](NC(=O)[C@H](Cc4ccccc4)NC(=O)[C@H](CO)NC(=O)[C@H](CC(C)C)NC(=O)[C@H](CCCNC(=N)N)NC(=O)[C@H](Cc4ccc(O)cc4)NC(=O)[C@H](CCCCN)NC(=O)[C@H](CCSC)NC(=O)[C@H](CO)NC(=O)[C@H](Cc4c[nH]cn4)NC(=O)[C@H](CCCCN)NC3=O)C(=O)N[C@@H](CCCNC(=N)N)C(=O)N[C@@H](CCCCN)C(=O)N[C@@H]([C@@H](C)O)C(=O)N2)NC(=O)[C@H](CCCNC(=N)N)NC(=O)[C@H](CO)NC(=O)[C@H](CCCCN)NC(=O)[C@@H]2CCCN2C(=O)[C@H]([C@@H](C)CC)NC(=O)[C@H]([C@@H](C)O)NC(=O)[C@H](CC(=O)O)NC1=O` [ShK[2-35]] (H-SCIDTIPKSRCTAFQCKHSMKYRLSFCRKTCGTC-OH; disulfide 2-34, 11-27, 16-31) displayed an IC50 at human Kv1.3 [1] of 0.049 ± 0.005 nM.

With `CC[C@H](C)[C@@H]1NC(=O)[C@H](CCCCN)NC(=O)[C@@H](NC(=O)[C@H](CCCCN)NC(=O)[C@@H](NC(=O)[C@H](CC(N)=O)NC(=O)[C@@H](NC(=O)[C@@H](NC(=O)[C@@H](NC(=O)CN)C(C)C)[C@@H](C)CC)[C@@H](C)CC)C(C)C)CSSC[C@@H]2NC(=O)[C@H](CCCCN)NC(=O)CNC(=O)[C@H](Cc3ccccc3)NC(=O)[C@H](CCCNC(=N)N)NC(=O)[C@H](CCSC)NC(=O)CNC(=O)[C@H](Cc3cccc4ccccc34)NC(=O)[C@H](CCCCN)NC(=O)[C@H](CCCCN)NC(=O)[C@@H]3CSSC[C@@H](C(=O)N[C@H](C(=O)N4CCC[C@H]4C(=O)N[C@@H](CCCCN)C(=O)O)[C@@H](C)O)NC(=O)[C@H](Cc4c[nH]cn4)NC(=O)[C@H](CSSC[C@H](NC(=O)[C@H](CCC(N)=O)NC(=O)[C@H](CCCNC(=N)N)NC(=O)[C@H](CO)NC1=O)C(=O)N[C@@H](CC(C)C)C(=O)N[C@@H](CCC(=O)O)C(=O)N1CCC[C@H]1C(=O)N3)NC(=O)[C@H](CCCCN)NC(=O)CNC(=O)[C@H](CC(N)=O)NC(=O)[C@H](CCSC)NC2=O` [A21Nal] (H-GVIINVKCKISRQCLEPCKK[1Nal]GMRFGKCMNGKCHCTPK-OH; disulfide 8-28, 14-33, 18-35), the IC50 was 0.0261 nM against human Kv1.3 (CHO), < 0.00152 nM against human Kv1.1 (HEK293), 0.434 nM in series [2] and 0.315 nM in series [3].

Turning to `CC[C@H](C)[C@@H]1NC(=O)[C@H](CCCCN)NC(=O)[C@@H](NC(=O)[C@H](CCCCN)NC(=O)[C@@H](NC(=O)[C@H](CC(N)=O)NC(=O)[C@@H](NC(=O)[C@@H](NC(=O)[C@@H](NC(=O)[C@@H](N)Cc2cccc3ccccc23)C(C)C)[C@@H](C)CC)[C@@H](C)CC)C(C)C)CSSC[C@@H]2NC(=O)[C@H](CCCCN)NC(=O)CNC(=O)[C@H](Cc3ccccc3)NC(=O)[C@H](CCCNC(=N)N)NC(=O)[C@H](CCSC)NC(=O)CNC(=O)[C@H](C)NC(=O)[C@H](CCCCN)NC(=O)[C@H](CCCCN)NC(=O)[C@@H]3CSSC[C@@H](C(=O)N[C@H](C(=O)N4CCC[C@H]4C(=O)N[C@@H](CCCCN)C(=O)O)[C@@H](C)O)NC(=O)[C@H](Cc4c[nH]cn4)NC(=O)[C@H](CSSC[C@H](NC(=O)[C@H](CCC(N)=O)NC(=O)[C@H](CCCNC(=N)N)NC(=O)[C@H](CO)NC1=O)C(=O)N[C@@H](CC(C)C)C(=O)N[C@@H](CCC(=O)O)C(=O)N1CCC[C@H]1C(=O)N3)NC(=O)[C@H](CCCCN)NC(=O)CNC(=O)[C@H](CC(N)=O)NC(=O)[C@H](CCSC)NC2=O` [G1Nal] (H-[1Nal]VIINVKCKISRQCLEPCKKAGMRFGKCMNGKCHCTPK-OH; disulfide 8-28, 14-33, 18-35), the IC50 on human Kv1.3 (CHO) was 0.0207 nM; at human Kv1.1 (HEK293), 0.0339 nM; in series [2], 2.56 nM; in series [3], 2.79 nM.

On to “Fc-L-KTX1: Fc-linker fusion of Kaliotoxin1 (KTX1)”, for which the “block of human Kv1.3 current” value with human Kv1.3 [1] is given as “blocked the human Kv1.3 current in a dose-dependent fashion”.

Take `CC[C@H](C)[C@H](NC(=O)[C@@H](NC(=O)CN)C(C)C)C(=O)N[C@H](C(=O)N[C@@H](CC(N)=O)C(=O)N[C@H](C(=O)N[C@@H](CCCCN)C(=O)N[C@H]1CSSC[C@@H]2NC(=O)[C@H](CCCCN)NC(=O)CNC(=O)[C@H](Cc3ccccc3)NC(=O)[C@H](CCCNC(=N)N)NC(=O)[C@H](CCSC)NC(=O)CNC(=O)[C@H](C)NC(=O)[C@H](CCCCN)NC(=O)[C@H](CCCCN)NC(=O)[C@@H]3CSSC[C@@H](C(=O)N[C@H](C(=O)N4CCC[C@H]4C(=O)N[C@@H](CCCCN)C(=O)O)[C@@H](C)O)NC(=O)[C@H](Cc4c[nH]cn4)NC(=O)[C@H](CSSC[C@H](NC(=O)[C@H](CCC(N)=O)NC(=O)[C@H](CCCNC(=N)N)NC(=O)[C@H](CO)NC(=O)[C@H](Cc4cccc5ccccc45)NC(=O)[C@H](CCCCN)NC1=O)C(=O)N[C@@H](CC(C)C)C(=O)N[C@@H](CCC(=O)O)C(=O)N1CCC[C@H]1C(=O)N3)NC(=O)[C@H](CCCCN)NC(=O)CNC(=O)[C@H](CC(N)=O)NC(=O)[C@H](CCSC)NC2=O)C(C)C)[C@@H](C)CC` [I10Nal] (H-GVIINVKCK[1Nal]SRQCLEPCKKAGMRFGKCMNGKCHCTPK-OH; disulfide 8-28, 14-33, 18-35): the IC50 on human Kv1.3 (CHO) is 0.0454 nM; at human Kv1.1 (HEK293), < 0.00152 nM; in series [2] it was 0.257 nM; in series [3], 0.184 nM.

With `CC[C@H](C)[C@@H]1NC(=O)[C@H](CCCCN)NC(=O)[C@@H](NC(=O)[C@H](CCCCN)NC(=O)[C@@H](NC(=O)[C@H](CC(N)=O)NC(=O)[C@@H](NC(=O)[C@@H](NC(=O)[C@@H](NC(=O)CN)C(C)C)[C@@H](C)CC)[C@@H](C)CC)C(C)C)CSSC[C@@H]2NC(=O)[C@H](CCCCN)NC(=O)CNC(=O)[C@H](Cc3ccccc3)NC(=O)[C@H](CCCNC(=N)N)NC(=O)[C@H](CCSC)NC(=O)CNC(=O)[C@H](C)NC(=O)[C@H](CCCCN)NC(=O)[C@H](CCCCN)NC(=O)[C@@H]3CSSC[C@@H](C(=O)N[C@H](C(=O)N4CCC[C@H]4C(=O)N[C@@H](CCCCN)C(=O)O)[C@@H](C)O)NC(=O)[C@H](Cc4c[nH]cn4)NC(=O)[C@H](CSSC[C@H](NC(=O)[C@H](CCC(N)=O)NC(=O)[C@H](CCCNC(=N)N)NC(=O)[C@H](CCC(=O)O)NC1=O)C(=O)N[C@@H](CC(C)C)C(=O)N[C@@H](CCC(=O)O)C(=O)N1CCC[C@H]1C(=O)N3)NC(=O)[C@H](CCCCN)NC(=O)CNC(=O)[C@H](CC(N)=O)NC(=O)[C@H](CCSC)NC2=O` [S11E] (H-GVIINVKCKIERQCLEPCKKAGMRFGKCMNGKCHCTPK-OH; disulfide 8-28, 14-33, 18-35), the IC50 at human Kv1.3 (CHO) and against human Kv1.1 (HEK293) was > 3.33 nM in each case.

Consider E. coli-derived Fc-L-OSK1, for which, in the series with human Kv1.3 [1] (read-out: Kv1.3 IC50 by WCVC), the IC50 amounted to 3.2 nM.
